Results: PMC10811744 (Molecular cancer therapeutics, 2023)
Several values for one entry are separate records, joined by “and”; a condition that tells them apart may be missing. Identical values can stand only once. Like-named read-outs stand apart in the source and are kept apart here.

Key:
[1] = system: U251 and U87 GBM model cells; assay: Matrigel invasion chamber assay; assay type: cell-based, human; details: 10μM, 22h
[2] = system: U251 GBM cells; assay: MTT cell viability assay, WT U251 GBM cells; assay type: cell-based, human
[3] = target: ERα (Homo sapiens, UniProt P03372); assay: ERE-Luc reporter gene assay in HEK293T cells expressing ERα; assay type: cell-based; details: 24 hours
[4] = target: T1, ERβ (Homo sapiens, UniProt Q92731); assay: PolarScreen ER competitive binding assay; details: based on EC50 values from polar screen ERα and ERβ assays
[5] = system: normal human astrocytes; assay: MTT cell viability assay, normal human astrocytes; assay type: cell-based
[6] = system: GSC-040815 orthotopic tumor; assay: Orthotopic xenograft model with patient-derived GSC-040815 cells; assay type: in vivo, SCID mice; details: 50 mg/kg/i.p.
[7] = system: U251 GBM model cells expressing ERβ; assay: MTT cell viability assay, U251 GBM model cells expressing ERβ; assay type: cell-based, human; details: read-out: growth inhibitory activity IC50
[8] = system: GSC-031417, GSC-012015, and GSC-040815 cells; assay: Neurosphere formation assay; assay type: cell-based, human; details: 20 μM, three GSC model cells
[9] = system: U251 and U87 cells; assay: Colony formation; assay type: cell-based, human; details: 10 μM
[10] = system: SOX2, and OCT4; assay: Western blotting of stemness markers in GSCs; assay type: cell-based, human
[11] = target: T1, ERβ; assay: ERE-Luc reporter gene assay in HEK293T cells expressing ERβ; assay type: cell-based; details: 24 hours
[12] = target: T1, ERβ; assay: ERE-Luc reporter gene assay in U251 GBM cells expressing ERβ; assay type: cell-based; details: 24 h
[13] = system: ERβ target genes; assay: RT-qPCR of ERβ target genes in patient derived GSCs; assay type: cell-based, human; details: 10 μM, 72h, GSC-040815, GSC-031417, RT-qPCR
[14] = system: primary GSCs; assay: CellTiter Glo cell viability assay, patient derived GSCs; assay type: cell-based, human; details: multiple primary GSCs
[15] = system: orthotopic U251 tumor; assay: Orthotopic U251 xenograft model; assay type: in vivo, mice; details: 50 mg/kg/i.p.
[16] = system: GBM cells; assay: Annexin V/PI apoptosis assay; assay type: cell-based, human; details: 20 μM
[17] = system: U251 subcutaneous xenograft; details: 20 mg/kg/day i.p.
[18] = system: U251-ERβ-KO cells; assay: MTT cell viability assay, U251-ERβ-KO cells; assay type: cell-based, human
[19] = system: GBM cells; assay: GBM cell viability; assay type: cell-based, human; details: read-out: GBM cell viability IC50
[20] = mouse, in vivo, ip, 20 mg/kg
[21] = system: U251- ERβ KO cells; assay: Invasion and colony formation of U251-ERβ KO cells; assay type: cell-based, human
[22] = no reference given; cited from earlier work
[23] = system: GBM cells; details: read-out: IC50 in GBM cells, no reference given; cited from earlier work

T1 sequence (Q92731 whole entry): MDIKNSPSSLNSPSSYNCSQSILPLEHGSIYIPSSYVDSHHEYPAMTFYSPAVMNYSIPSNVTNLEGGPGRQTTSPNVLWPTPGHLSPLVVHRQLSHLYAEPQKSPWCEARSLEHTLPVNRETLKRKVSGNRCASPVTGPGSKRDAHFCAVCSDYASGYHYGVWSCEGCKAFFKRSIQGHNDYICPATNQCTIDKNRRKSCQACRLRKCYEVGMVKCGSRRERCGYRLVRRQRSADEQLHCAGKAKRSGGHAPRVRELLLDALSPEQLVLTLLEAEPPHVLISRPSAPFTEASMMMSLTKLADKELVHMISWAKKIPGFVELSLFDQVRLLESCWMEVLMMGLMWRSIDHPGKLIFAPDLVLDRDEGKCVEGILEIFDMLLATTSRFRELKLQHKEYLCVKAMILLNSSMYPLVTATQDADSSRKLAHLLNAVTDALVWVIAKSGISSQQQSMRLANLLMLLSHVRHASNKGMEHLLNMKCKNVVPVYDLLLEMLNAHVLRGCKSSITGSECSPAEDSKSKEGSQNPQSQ
Chain of ERα (P03372 whole entry): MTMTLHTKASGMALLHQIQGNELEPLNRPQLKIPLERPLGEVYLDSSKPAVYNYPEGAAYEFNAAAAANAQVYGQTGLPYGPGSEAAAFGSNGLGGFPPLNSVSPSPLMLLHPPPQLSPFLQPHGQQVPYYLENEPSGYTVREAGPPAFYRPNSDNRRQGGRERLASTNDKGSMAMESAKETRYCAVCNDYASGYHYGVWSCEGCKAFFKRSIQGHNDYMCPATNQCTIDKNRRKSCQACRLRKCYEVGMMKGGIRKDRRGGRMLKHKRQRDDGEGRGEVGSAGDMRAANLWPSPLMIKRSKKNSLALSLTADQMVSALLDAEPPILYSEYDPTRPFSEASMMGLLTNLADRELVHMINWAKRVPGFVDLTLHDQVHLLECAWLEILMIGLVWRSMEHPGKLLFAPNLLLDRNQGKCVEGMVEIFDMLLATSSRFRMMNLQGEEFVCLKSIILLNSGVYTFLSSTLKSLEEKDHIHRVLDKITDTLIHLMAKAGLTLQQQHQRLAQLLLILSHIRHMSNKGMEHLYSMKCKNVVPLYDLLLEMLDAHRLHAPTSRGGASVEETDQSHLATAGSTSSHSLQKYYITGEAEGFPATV

SMILES: CCN(CC)CCCC(C)NC(=O)c1ccc2c(c1)C(=O)c1ccccc1C2=O (stereo not shown) [CIDD-0149897]
- GBM cells invasion [1]: significantly reduced
- effect on U251 cell viability [2]: significantly decreased
- ERα reporter activation [3]: no activation of ERα reporter
- selectivity for ERβ over ERα [4]: 40 fold
- effect on viability of normal human astrocytes [5]: little to no effect
- effect on viability of normal human astrocytes ([5]; listed as CIDD-014987): no/limited effect
- Ki-67 positive cells, IHC [6]: significantly decreased
- survival of GSC tumor-bearing mice [6]: significantly enhanced the survival
- IC50 [7]: 7.4 µM and ~7.4 µM
- neurosphere growth [8]: significantly reduced
- long-term colony formation [9]: significantly reduced
- expression of stemness markers [10]: reduced the expression of stemness markers
- ERβ reporter activity [11]: enhanced ERβ reporter activity in a dose dependent manner
- ERβ reporter activity [12]: enhanced ERβ reporter activity in a dose dependent manner in U251 GBM cells
- expression of ERβ target genes [13]: activation of ERβ target genes
- cytotoxic activity against primary GSCs [14]: potent cytotoxic activity
- survival of orthotopic U251 tumor bearing mice [15]: significantly increased the survival
- Ki-67 positive proliferating cells, IHC ([15]; tumor sections): fewer proliferating cells
- apoptosis of GBM cells [16]: significantly promoted apoptosis
- ERβ target genes in tumor tissues, RT-qPCR [17]: significant increase
- tumor progression compared to vehicle ([17]; 5 days/week): significantly reduced
- tumor weights compared to vehicle ([17]; after 35 days of treatment): significantly smaller
- Ki-67 positive proliferating cells, IHC ([17]; tumors): fewer proliferating cells
- effect on viability of ERβ-KO cells [18]: little to no effect
- effect on viability of ERβ-KO cells ([18]; listed as CIDD-014987): no/limited effect
- IC50 [19]: 7 to 15 µM
- mean half-life, terminal elimination phase [20]: 9.59 h
- time to maximum blood concentration [20]: less than 15 min
- invasion and colony formation of U251- ERβ KO cells [21]: no significant effect

SMILES: Oc1ccc([C@H]2COc3cc(O)ccc3C2)cc1 [S-equol]
- brain penetration [22]: lacks brain penetration
- IC50 [23]: 100 to 200 µM
